Results published in US20230120205A1, “NERVE CELL DEGENERATION INHIBITOR” (KYOTO UNIVERSITY, priority 2020, published 2023).

Experiments:
RAN translation = RAN translation inhibitory activity (poly-GP level by electrochemiluminescence); assay type: cell-based, human; details: two days after addition, poly-GP level vs DMSO; for inhibition at 3 µM / inhibition at 1 µM / inhibition at 10 µM: Homo sapiens, 48 h
Experimental: Next, the effect of the compound used in the present invention on RAN translation was examined. Among the DPRs generated by RAN translation, the poly-GP level was measured by an electrochemiluminescence system (Meso Scale Diagnostics).
ALS7 (C9orf72) cells were seeded on an assay plate in the same procedure as in Experimental Example 1. Four days after seeding, the assay medium containing no Y-27632 was added to the plate, and the cells were cultured until seven days after seeding, and the assay medium (Retinoic Acid, Doxycycline, SAG, Y-27632-free) containing the test compound at a predetermined concentration was added to the plate by medium exchange. Two days after addition of the test compound, the medium was removed, and the cells were lysed in an urea buffer consisting of 8M Urea (Wako, 219-00175), 4% CHAPS (Dojindo, 349-04722) and 30 mM Tris-HCl (pH 8.0, Nippon Gene, 312-90061). The cell lysate was added to a multi-array 384 well plate (Meso Scale Diagnostics, L21XB-4), and the plate was agitated at 700 rpm with a plate shaker (Azwan, DM-301) at room temperature, and then allowed to stand overnight at 4° C. The cell lysate was removed, a blocking buffer consisting of 5% Blocker A (Meso Scale Diagnostics, R93AA-1) and 1×TBS-T {TBS (Bio-Rad, 170-6435) containing 0.05% Tween-20 (Bio-Rad, 170-6531)} was added to the plate, and the plate was agitated at 700 rpm with a plate shaker for 1 hr at room temperature, and then washed three times with a wash buffer consisting of 0.05% Tween-20 and PBS (Wako, 162-18547). C9RANT antibody (Novus Biologicals, NBP2-25018) diluted 10,000-fold with 1×TBS-T containing 1% Blocker A was added to the plate, and the plate was agitated at 700 rpm with a plate shaker for 2 hr at 4° C., and then allowed to stand overnight at 4° C. After washing three times with the wash buffer, SULFO-TAG Goat Anti-Rabbit Antibody (Meso Scale Diagnostics, R32AB-1) diluted 500-fold with 1×TBS-T containing 1% Blocker A was added to the plate, and the plate was agitated at 700 rpm with a plate shaker for 2 hr at room temperature. After washing three times with the wash buffer, 2×MSD Read Buffer T with Surfactant (Meso Scale Diagnostics, R92TC-1) was added to the plate, and the signal derived from the C9RANT antibody was measured by MESO SECTOR S600 (Meso Scale Diagnostics).
The method for detecting the activity of the test compound is as follows.
(§1) As a negative control, the cells cultured in the assay medium supplemented with DMSO instead of the test compound were used.
RAN translation inhibitory activity of the test compound=100−X/C×100
X: poly-GP level in the test compound group, C: poly-GP level in the DMSO group

[1] = system: ALS7 (C9orf72) cell-derived motor neurons; experiment: Cytotoxicity: intracellular ATP level (CellTiter-Glo); assay type: cell-based, human
Experimental: In order to examine the cytotoxicity of the test compound, the intracellular ATP level was measured.
ALS7 (C9orf72) cells were seeded on an assay plate in the same procedure as in Experimental Example 1. Four days after seeding, the assay medium containing no Y-27632 was added to the plate, and the cells were cultured until seven days after seeding, and the assay medium (Retinoic Acid, Doxycycline, SAG, Y-27632-free) containing the test compound at a predetermined concentration was added to the plate by medium exchange. 24 hr or 48 hr after addition of the test compound, the medium was removed, and CellTiter-Glo Luminescent Cell Viability Assay (Promega, G7570) was performed.
The method for detecting the cytotoxicity of the test compound is as follows.
as §1
The degree of the effect on the intracellular ATP level in the test compound-treated cells was defined as the ATP level of the test compound compared with the negative control, which was calculated by the following formula.
ATP level of the test compound compared to the negative control=X/C×100
X: ATP level in the test compound group, C: ATP level in the DMSO group
When the intracellular ATP level was less than 0.5 times or more than 1.5 times the intracellular ATP level in the negative control, it was judged to be cytotoxic.

Row | Structure (SMILES) | RAN translation inhibitory activity % (RAN translation; 1 μM test compound) | RAN translation inhibitory activity % (RAN translation; 10 μM test compound) | inhibition at 3 µM (RAN translation; 3 μM test compound) | ATP level % compared to negative control ([1]; After 24 hr, 1 μM) | ATP level % compared to negative control ([1]; After 24 hr, 3 μM) | ATP level % compared to negative control ([1]; After 24 hr, 10 μM) | ATP level % compared to negative control ([1]; After 48 hr, 1 μM) | ATP level % compared to negative control ([1]; After 48 hr, 3 μM) | ATP level % compared to negative control ([1]; After 48 hr, 10 μM) | inhibition at 1 µM (RAN translation; 1 μM test compound) | inhibition at 10 µM (RAN translation; 10 μM test compound) | RAN translation inhibitory activity % (RAN translation; 3 μM test compound)
1 | NS(=O)(=O)Cc1cccc(Nc2ncnc(-c3ccccc3OCc3ccccc3)n2)c1.O=C(O)C(F)(F)F [Compound No. 4a, 1-[3-({4-[2-(benzyloxy)phenyl]-1,3,5-triazin-2-yl}amino)phenyl]methanesulfonamide trifluoroacetate] | 5% | 3% | 11% | 113% | 128% | 140% | 80% | 101% | 115% | – | – | –
2 | COc1ccccc1-c1ncnc(Nc2cccc(CS(N)(=O)=O)c2)n1 [Compound No. 2, 1-(3-{[4-(2-methoxyphenyl)-1,3,5-triazin-2-yl]amino}phenyl)methanesulfonamide] | – | – | 6% | 98% | 89% | 101% | 99% | 74% | 53% | > 1% | 15% | –
3 | COc1cc(F)ccc1-c1ncnc(Nc2cccc(CS(C)(=N)=O)c2)n1 (centres unmarked) [Compound No. 1, 4-(4-fluoro-2-methoxyphenyl)-N-{3-[(S-methanesulfonimidoyl)methyl]phenyl}-1,3,5-triazin-2-amine] | – | – | 19% | 92% | 107% | 134% | 91% | 89% | 122% | 1% | 18% | –
4 | CS(=N)(=O)Cc1cccc(Nc2ncnc(-c3ccccc3OCc3ccc(Cl)c(Cl)c3)n2)c1 (centres unmarked) [Compound No. 5, 4-{2-[(3,4-dichlorophenyl)methoxy]phenyl}-N-{3-[(S-methanesulfonimidoyl)methyl]phenyl}-1,3,5-triazin-2-amine] | – | – | 16% | 98% | 118% | 131% | 83% | 94% | 108% | 19% | 21% | –
5 | NS(=O)(=O)Cc1cccc(Nc2ncnc(-c3ccccc3OCc3ccccc3)n2)c1 [Compound No. 4b, 1-[3-({4-[2-(benzyloxy)phenyl]-1,3,5-triazin-2-yl}amino)phenyl]methanesulfonamide] | 11% | 17% | – | 105% | 121% | 134% | 73% | 97% | 102% | – | – | 17%
6 | COc1cc(Cl)ccc1-c1ncnc(Nc2cccc(CS(N)(=O)=O)c2)n1 [Compound No. 3, 1-(3-{[4-(4-chloro-2-methoxyphenyl)-1,3,5-triazin-2-yl]amino}phenyl)methanesulfonamide] | – | – | 1% | 104% | 97% | 106% | 105% | 87% | 69% | > 1% | 4% | –
7 | CCOC(=O)N=S(C)(=O)Cc1cccc(Nc2ncnc(-c3cccc4c3OCCO4)n2)c1 (centres unmarked) [Compound No. 6, ethyl {[(3-{[4-(2,3-dihydro-1,4-benzodioxin-5-yl)-1,3,5-triazin-2-yl]amino}phenyl)methyl](methyl)oxo-λ^6-sulfanylidene}carbamate] | – | – | – | 89% | 107% | 130% | 77% | 71% | 124% | 16% | 21% | –
8 | CCOC(=O)N=S(C)(=O)Cc1cccc(Nc2ncnc(-c3cccc4c3OCC4)n2)c1 (centres unmarked) [Compound No. 7, ethyl {[(3-{[4-(2,3-dihydro-1-benzofuran-7-yl)-1,3,5-triazin-2-yl]amino}phenyl)methyl](methyl)oxo-λ^6-sulfanylidene}carbamate] | – | – | 19% | 89% | 105% | 126% | 86% | 87% | 112% | 4% | 17% | –
